The record followed here is patent US20080051429A1, “USE OF 4-AMINO-PIPERIDINES FOR TREATING SLEEP DISORDERS” (priority 2006, published 2008).

What all share (experiment): R-SAT broad profiling
Common to all, as to type: cell-based
Holding throughout (parameters): expressed in transfected cells
What all share (conditions): read-out: pEC50/pIC50 (converted)

The target of one assay is 5HT1D (Homo sapiens, UniProt P28221). How it is done:
(§1) The functional receptor assay, Receptor Selection and Amplification Technology (R-SAT), was used (with minor modifications from that previously described U.S. Pat. No. 5,707,798) to screen compounds for efficacy at the 5-HT2A receptor. Briefly, NIH3T3 cells were grown in 96 well tissue culture plates to 70-80% confluence. Cells were transfected for 12-16 hours with plasmid DNAs using superfect (Qiagen Inc.) as per manufacture's protocols. R-SAT's were generally performed with 50 ng/well of receptor and 20 ng/well of Beta-galactosidase plasmid DNA. All receptor and G-protein constructs used were in the pSI mammalian expression vector (Promega Inc) as described in U.S. Pat. No. 5,707,798. The 5HT2A receptor gene was amplified by nested PCR from brain cDNA using the oligodeoxynucleotides based on the published sequence (see Saltzman et. al. Biochem. Biophys. Res. Comm. 181:1469-78 (1991)). Large-scale transfections, cells were transfected for 12-16 hours, then trypsinized and frozen in DMSO. Frozen cells were later thawed, plated at 10,000-40,000 cells per well of a 96 well plate that contained drug. With both methods, cells were then grown in a humidified atmosphere with 5% ambient CO2 for five days. Media was then removed from the plates and marker gene activity was measured by the addition of the beta-galactosidase substrate ONPG (in PBS with 5% NP-40). The resulting colorimetric reaction was measured in a spectrophotometric plate reader (Titertek Inc.)at […]. All data were analyzed using the computer program XLFit (IDBSm). Efficacy is the percent maximal repression compared to repression by a control compound (ritanserin in the case of 5HT2A). pIC50 is the negative of the log(IC50), where IC50 is the calculated concentration in Molar that produces 50% maximal repression.
(§2) The R-SAT assay (described above in example 136) was used to investigate the selectivity of 2-(4-Methoxyphenyl)-N-(4-methylbenzyl)-N-(1-methylpiperidin-4-yl)acetamide hydrochloride.

The target in a further assay is 5HT1B (Homo sapiens, UniProt P28222). How it is done:
as §1, §2

Another assay addresses T1, 5HT1F (Homo sapiens, UniProt P30939).
T1 sequence (P30939 1-366): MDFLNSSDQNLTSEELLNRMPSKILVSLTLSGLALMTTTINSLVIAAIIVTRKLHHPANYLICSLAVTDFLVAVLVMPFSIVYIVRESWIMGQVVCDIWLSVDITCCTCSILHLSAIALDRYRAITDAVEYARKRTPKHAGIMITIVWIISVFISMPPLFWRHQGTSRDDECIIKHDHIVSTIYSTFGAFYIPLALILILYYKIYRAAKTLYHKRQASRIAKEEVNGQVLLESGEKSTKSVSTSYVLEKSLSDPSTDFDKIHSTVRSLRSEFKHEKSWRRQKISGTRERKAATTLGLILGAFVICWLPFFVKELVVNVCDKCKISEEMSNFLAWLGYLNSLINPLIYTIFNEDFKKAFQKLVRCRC
As to the method:
as §1, §2

Another assay deals with T2, 5HT2C (Homo sapiens, UniProt P28335).
T2 sequence (P28335 33-458): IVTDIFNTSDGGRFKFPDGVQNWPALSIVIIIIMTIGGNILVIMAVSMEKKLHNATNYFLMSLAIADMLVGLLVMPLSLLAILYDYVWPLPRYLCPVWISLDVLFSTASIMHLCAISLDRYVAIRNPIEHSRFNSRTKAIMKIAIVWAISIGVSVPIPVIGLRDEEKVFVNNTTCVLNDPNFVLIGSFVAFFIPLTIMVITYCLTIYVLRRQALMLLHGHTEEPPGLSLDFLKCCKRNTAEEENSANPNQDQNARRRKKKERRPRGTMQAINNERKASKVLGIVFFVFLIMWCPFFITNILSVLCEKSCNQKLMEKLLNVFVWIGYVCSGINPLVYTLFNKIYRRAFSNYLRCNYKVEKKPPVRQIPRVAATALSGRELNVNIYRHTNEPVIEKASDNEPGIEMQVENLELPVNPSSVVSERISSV
How it is done:
as §1, §2

Another assay addresses 5HT1E (Homo sapiens, UniProt P28566). How it is done: as §1, §2
For the next assay, the target named is 5HT2B (Homo sapiens, UniProt P41595). As to the method:
as §1, §2

The target in a further assay is T3, 5HT1A (Homo sapiens, UniProt P08908).
T3 sequence (P08908 1-422): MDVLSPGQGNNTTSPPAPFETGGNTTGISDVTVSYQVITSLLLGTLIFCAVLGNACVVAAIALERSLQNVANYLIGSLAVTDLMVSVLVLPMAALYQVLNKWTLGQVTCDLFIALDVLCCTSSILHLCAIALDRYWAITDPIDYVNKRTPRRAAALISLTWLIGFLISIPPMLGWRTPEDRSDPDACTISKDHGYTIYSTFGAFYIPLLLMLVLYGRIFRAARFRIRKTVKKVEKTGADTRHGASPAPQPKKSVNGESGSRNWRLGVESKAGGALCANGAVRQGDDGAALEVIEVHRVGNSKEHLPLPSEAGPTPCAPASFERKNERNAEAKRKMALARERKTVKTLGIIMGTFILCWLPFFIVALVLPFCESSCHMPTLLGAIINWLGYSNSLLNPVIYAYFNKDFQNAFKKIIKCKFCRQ
How it is done: as §1, §2

5HT2B, sequence (P41595 whole entry, species assumed): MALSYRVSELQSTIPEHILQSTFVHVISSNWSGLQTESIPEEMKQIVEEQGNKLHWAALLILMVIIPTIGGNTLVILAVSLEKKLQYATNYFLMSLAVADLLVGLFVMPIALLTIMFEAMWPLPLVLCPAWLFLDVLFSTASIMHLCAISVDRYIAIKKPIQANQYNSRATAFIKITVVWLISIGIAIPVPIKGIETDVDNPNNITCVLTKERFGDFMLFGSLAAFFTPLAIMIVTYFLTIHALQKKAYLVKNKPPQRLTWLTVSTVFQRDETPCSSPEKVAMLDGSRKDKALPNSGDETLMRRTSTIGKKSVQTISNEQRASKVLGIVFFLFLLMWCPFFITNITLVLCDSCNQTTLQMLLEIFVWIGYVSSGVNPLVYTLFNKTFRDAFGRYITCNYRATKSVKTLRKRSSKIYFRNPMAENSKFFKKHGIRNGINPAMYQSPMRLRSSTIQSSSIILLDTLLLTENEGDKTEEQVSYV
5HT1B, sequence (P28222 whole entry, species assumed): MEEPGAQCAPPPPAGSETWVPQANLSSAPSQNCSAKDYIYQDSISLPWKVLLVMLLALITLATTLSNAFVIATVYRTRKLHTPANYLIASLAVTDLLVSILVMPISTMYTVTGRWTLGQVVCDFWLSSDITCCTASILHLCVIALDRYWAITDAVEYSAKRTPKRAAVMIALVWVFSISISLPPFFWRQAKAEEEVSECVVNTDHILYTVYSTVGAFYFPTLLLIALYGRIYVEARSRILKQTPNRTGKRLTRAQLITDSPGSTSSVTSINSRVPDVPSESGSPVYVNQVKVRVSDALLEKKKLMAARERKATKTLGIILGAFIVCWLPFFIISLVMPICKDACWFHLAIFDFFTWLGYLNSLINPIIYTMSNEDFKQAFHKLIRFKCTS
5HT1E, sequence (P28566 whole entry, species assumed): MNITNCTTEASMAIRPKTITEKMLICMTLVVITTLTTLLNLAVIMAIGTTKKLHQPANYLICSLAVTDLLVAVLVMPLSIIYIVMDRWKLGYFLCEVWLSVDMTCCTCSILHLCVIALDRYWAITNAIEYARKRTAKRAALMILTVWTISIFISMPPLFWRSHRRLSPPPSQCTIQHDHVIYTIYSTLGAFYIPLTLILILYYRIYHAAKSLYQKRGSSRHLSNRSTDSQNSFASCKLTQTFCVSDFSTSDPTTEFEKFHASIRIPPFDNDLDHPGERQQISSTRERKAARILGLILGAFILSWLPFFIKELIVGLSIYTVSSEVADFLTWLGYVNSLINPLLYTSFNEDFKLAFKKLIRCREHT
5HT1D, sequence (P28221 whole entry, species assumed): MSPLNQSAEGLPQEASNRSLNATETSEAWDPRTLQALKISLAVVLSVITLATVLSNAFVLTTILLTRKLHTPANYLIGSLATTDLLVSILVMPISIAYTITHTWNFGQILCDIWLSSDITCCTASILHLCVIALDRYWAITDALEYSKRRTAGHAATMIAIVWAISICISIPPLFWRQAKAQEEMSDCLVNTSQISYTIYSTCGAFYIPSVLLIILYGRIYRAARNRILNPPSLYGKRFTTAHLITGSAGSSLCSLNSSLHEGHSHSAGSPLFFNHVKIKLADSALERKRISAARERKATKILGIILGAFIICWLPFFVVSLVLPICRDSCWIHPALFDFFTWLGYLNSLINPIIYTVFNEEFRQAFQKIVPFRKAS

`COc1ccc(CC(=O)N(Cc2ccc(C)cc2)C2CCN(C)CC2)cc1` [Example 50ELH27, 2-(4-Methoxyphenyl)-N-(4-methylbenzyl)-N-(1-methylpiperidin-4-yl)acetamide]: the EC50 on 5HT1D (agonist), on 5HT1B (agonist), at 5HT1F (agonist), at 5HT2C (agonist), on 5HT1E (agonist) and on 5HT2B (agonist) was above 3.16 µM in each case. Besides, the EC50 at 5HT1A (agonist) was above 3.16 µM. For the same compound, the IC50 at 5HT1D (antagonist) is above 3.16 µM; on 5HT1B (antagonist) it was above 3.16 µM; on 5HT1F (antagonist) it was above 3.16 µM; on 5HT2C (inverse agonist), 0.1 µM; at 5HT1E (antagonist), above 3.16 µM; at 5HT2B (inverse agonist) it was 0.126 µM. Also, at 5HT1A (antagonist), the IC50 was above 3.16 µM.
